In US11649237B2, “Substituted imidazo[1,5-a]pyrazines for IRE1 inhibition” (Optikira LLC, priority 2017, dated 2023) one finds IC50 data, which are given here for 25 compounds.

For the test, the system named is XBP-1 splicing in ARPE-19 cells or apoptosis of INS-1 cells expressing mIRE-1. The test can be described thus: Cellular assay (XBP1 splicing assay or apoptosis assay). Format: cell-based. The settings on record: data are for the XBP1 splicing assay or the apoptosis assay (not specified per compound). On the procedure: ARPE-19 cells stably expressing XBP-1 (a.a. 1-376) with nano-luciferase gene sequence linked so it is in frame when XBP-1 is spliced, were cultured in F12 media, 10% FBS, 0.044% sodium bicarbonate, 150 μg/ml hygromycin B and seeded for assays at 5,000 cells in 384 well plates in culture media without hygromycin B and incubated at 37° C./5% CO2. […] After further incubation of 30 minutes thapsigargin was added (final concentration 150 nM) and then another 4 hour incubation. A NanoLuc luciferase assay (Promega) was used according to the manufacturer's instructions to detect the luciferase and luminescence measured on a luminometer (EnVision, PerkinElmer).
Doxycycline (final concentration 100 nM) was added and plates incubated for a further 72 hours. To determine the proportion of apoptotic cells Hoechst 33342 (final concentration 10 μg/mL) was added, then after 30 minutes incubation cells imaged and analyzed on an InCell high content imager.

On to `CNC1CC=C(c2cnc(N)c3c(-c4cccc5c(CC(=O)Nc6ccccc6)cccc45)nc(C(C)C)n23)CC1` (stereo not shown) [Example 82, 2-(5-(8-amino-3-isopropyl-5-(4-(methylamino)cyclohex-1-en-1-yl)imidazo[1,5-a]pyrazin-1-yl)naphthalen-1-yl)-N-phenylacetamide], for which the IC50 came to 400 nM. `Cc1nc(-c2ccc(NC(=O)Nc3cccc(C(F)(F)F)c3)c3ccccc23)c2c(N)ncc(C3CCCNC3)n12` (stereo not shown) [Example 40, 3-{4-[8-amino-3-methyl-5-(piperidin-3-yl)imidazo[1,5-a]pyrazin-1-yl]naphthalen-1-yl}-1-[3-(trifluoromethyl)phenyl]urea]: the IC50 came out at 280 nM.

As to `CNC1CC=C(c2cnc(N)c3c(-c4ccc(Cc5nc6cccc(C)c6[nH]5)c5ccccc45)nc(C(C)C)n23)CC1` (stereo not shown) [Example 156, 3-Isopropyl-1-(4-((7-methyl-1H-benzo[d]imidazol-2-yl)methyl)naphthalen-1-yl)-5-(4-(methylamino)cyclohex-1-en-1-yl)imidazo[1,5-a]pyrazin-8-amine], the IC50 came to 16 nM.

Compound `CCc1nc(-c2ccc(NC(=O)Nc3cccc(F)c3)cc2F)c2c(N)ncc(C3=CCC(NC)CC3)n12` (stereo not shown) [Example 126, 1-(4-(8-amino-3-ethyl-5-(4-(methylamino)cyclohex-1-en-1-yl)imidazo[1,5-a]pyrazin-1-yl)-3-fluorophenyl)-3-(3-fluorophenyl)urea] had an IC50 of 450 nM. In turn, `CNC1CC=C(c2cnc(N)c3c(-c4ccc(CC(=O)Nc5cccc(C#N)c5)c5ccccc45)nc(C(C)C)n23)CC1` (stereo not shown) [Example 70, 2-(4-(8-amino-3-isopropyl-5-(4-(methylamino)cyclohex-1-en-1-yl)imidazo[1,5-a]pyrazin-1-yl)naphthalen-1-yl)-N-(3-cyanophenyl)acetamide] came in with an IC50 of 140 nM. Take `CCc1nc(-c2ccc(NC(=O)Nc3cccc(C(F)(F)F)c3)c3ccccc23)c2c(N)ncc(CN3CCNCC3)n12` [Example 20, 3-{4-[8-amino-3-ethyl-5-(piperazin-1-ylmethyl)imidazo[1,5-a]pyrazin-1-yl]naphthalen-1-yl}-1-[3-(trifluoromethyl)phenyl]urea]: the IC50 came out at 470 nM.

`CNC1CC=C(c2cnc(N)c3c(-c4ccc(NC(=O)Nc5ccc6c(c5)OCCO6)cc4F)nc(C(C)C)n23)CC1` (stereo not shown) [Example 125, 1-(4-(8-amino-3-isopropyl-5-(4-(methylamino)cyclohex-1-en-1-yl)imidazo[1,5-a]pyrazin-1-yl)-3-fluorophenyl)-3-(2,3-dihydrobenzo[b][1,4]dioxin-6-yl)urea] registered an IC50 of 300 nM. Take `CNC1CC=C(c2cnc(N)c3c(-c4ccc(NS(=O)(=O)c5cc(C)ccc5Cl)c5ccccc45)nc(C(C)C)n23)CC1` (stereo not shown) [Example 219, N-(4-{8-amino-5-[4-(methylamino)cyclohex-1-en-1-yl]-3-(propan-2-yl)imidazo[1,5-a]pyrazin-1-yl}naphthalen-1-yl)-2-chloro-5-methylbenzene-1-sulfonamide]: the IC50 was found to be 20 nM. `CNC1CC=C(c2cncc3c(-c4ccc(NC(=O)Nc5ccccc5)c5ccccc45)nc(C(C)C)n23)CC1` (stereo not shown) [Example 155, 1-(4-(3-isopropyl-5-(4-(methylamino)cyclohex-1-en-1-yl)imidazo[1,5-a]pyrazin-1-yl)naphthalen-1-yl)-3-phenylurea] yielded an IC50 of 640 nM. For the compound `CNC1CC=C(c2cnc(N)c3c(-c4cccc5c(NC(=O)Nc6cccc(F)c6)cccc45)nc(C(C)C)n23)CC1` (stereo not shown) [Example 123, 1-(5-(8-amino-3-isopropyl-5-(4-(methylamino)cyclohex-1-en-1-yl)imidazo[1,5-a]pyrazin-1-yl)naphthalen-1-yl)-3-(3-fluorophenyl)urea], 230 nM corresponded to half-maximal inhibition (IC50). The figure for `CNC1CC=C(c2cnc(N)c3c(-c4ccc(NC(=O)Nc5cc(F)cc(F)c5)c5ccccc45)nc(C(C)C)n23)CC1` (stereo not shown) [Example 151, 1-(4-(8-amino-3-isopropyl-5-(4-(methylamino)cyclohex-1-en-1-yl)imidazo[1,5-a]pyrazin-1-yl)naphthalen-1-yl)-3-(3,5-difluorophenyl)urea] is 60 nM. In the case of `CC(C)c1nc(-c2ccc(NS(=O)(=O)Cc3ccccc3Cl)c(F)c2)c2c(N)ncc(C3=CCC(NCCF)CC3)n12` (stereo not shown) [Example 220, N-(4-(8-amino-5-(4-((2-fluoroethyl)amino)cyclohex-1-en-1-yl)-3-isopropylimidazo[1,5-a]pyrazin-1-yl)-2-fluorophenyl)-1-(2-chlorophenyl) methanesulfonamide], it took 50 nM to reach half-maximal inhibition (IC50).

Regarding `Cc1nc(-c2ccc(NS(=O)(=O)c3ccccc3Cl)c(F)c2)c2c(N)ncc(C3=CCC(NCCF)CC3)n12` (stereo not shown) [Example 231, N-(4-(8-amino-5-(4-((2-fluoroethyl)amino)cyclohex-1-en-1-yl)-3-methylimidazo[1,5-a]pyrazin-1-yl)-2-fluorophenyl)-2-chlorobenzenesulfonamide], the midpoint of inhibition, the IC50, lay at 19 nM.

`CNC1CC=C(c2cnc(N)c3c(-c4ccc(NS(=O)(=O)c5cc(C)ccc5F)c5ccccc45)nc(C(C)C)n23)CC1` (stereo not shown) [Example 185, N-(4-(8-amino-3-isopropyl-5-(4-(methylamino)cyclohex-1-en-1-yl)imidazo[1,5-a]pyrazin-1-yl)naphthalen-1-yl)-2-fluoro-5-methylbenzenesulfonamide] gave a concentration for half-maximal inhibition (IC50) of 210 nM. With `CC(C)c1nc(-c2ccc(NS(=O)(=O)Cc3ccccc3Cl)c(F)c2)c2c(N)ncc(C3=CCC(NC4COC4)CC3)n12` (stereo not shown) [Example 227, N-(4-(8-amino-3-isopropyl-5-(4-(oxetan-3-ylamino)cyclohex-1-en-1-yl)imidazo[1,5-a]pyrazin-1-yl)-2-fluorophenyl)-1-(2-chlorophenyl)methanesulfonamide], the IC50 turned out to be 87 nM.

In turn, `CNC1CC=C(c2cnc(N)c3c(-c4ccc(NC(=O)Nc5cccc(C#N)c5)c5ccccc45)nc(C(C)C)n23)CC1` (stereo not shown) [Example 142, 1-(4-(8-amino-3-isopropyl-5-(4-(methylamino)cyclohex-1-en-1-yl)imidazo[1,5-a]pyrazin-1-yl)naphthalen-1-yl)-3-(3-cyanophenyl)urea] displayed an IC50 of 94 nM. Take `CNC1CC=C(c2cnc(N)c3c(-c4ccc(NC(=O)Nc5cc(F)cc(OC)c5)cc4F)nc(C(C)C)n23)CC1` (stereo not shown) [Example 146, 1-(4-(8-amino-3-isopropyl-5-(4-(methylamino)cyclohex-1-en-1-yl)imidazo[1,5-a]pyrazin-1-yl)-3-fluorophenyl)-3-(3-fluoro-5-methoxyphenyl)urea]: the IC50 came out at 240 nM. In the case of `CNC1CC=C(c2cnc(N)c3c(-c4ccc(NC(=O)Nc5cccnc5)c5ccccc45)nc(C)n23)CC1` (stereo not shown) [Example 147, 1-(4-(8-amino-3-methyl-5-(4-(methylamino)cyclohex-1-en-1-yl)imidazo[1,5-a]pyrazin-1-yl)naphthalen-1-yl)-3-(pyridin-3-yl)urea] it was 3100 nM. The figure for `CNC1CC=C(c2cnc(N)c3c(-c4ccc(CC(=O)Nc5cc(F)cc(C#N)c5)c5ccccc45)nc(C(C)C)n23)CC1` (stereo not shown) [Example 67, 2-(4-(8-amino-3-isopropyl-5-(4-(methylamino)cyclohex-1-en-1-yl)imidazo[1,5-a]pyrazin-1-yl)naphthalen-1-yl)-N-(3-cyano-5-fluorophenyl)acetamide] is 210 nM; for `CNC1CC=C(c2cnc(N)c3c(-c4ccc(NS(=O)(=O)c5cc(Cl)ccc5Cl)cc4F)nc(C(C)C)n23)CC1` (stereo not shown) [Example 195, N-(4-(8-amino-3-isopropyl-5-(4-(methylamino)cyclohex-1-en-1-yl)imidazo[1,5-a]pyrazin-1-yl)-3-fluorophenyl)-2,5-dichlorobenzenesulfonamide] it is 66 nM; for `CNC1CC=C(c2cnc(N)c3c(-c4cccc5c(NC(=O)Nc6cccc(C(F)(F)F)c6)cccc45)nc(C(C)C)n23)CC1` (stereo not shown) [Example 124, 1-(5-(8-amino-3-isopropyl-5-(4-(methylamino)cyclohex-1-en-1-yl)imidazo[1,5-a]pyrazin-1-yl)naphthalen-1-yl)-3-(3-(trifluoromethyl)phenyl)urea] it is 430 nM. `CNC1CC=C(c2cnc(N)c3c(-c4ccc(NC(=O)Nc5cccc(OC)c5)c5ccccc45)nc(C(C)C)n23)CC1` (stereo not shown) [Example 141, 1-(4-(8-amino-3-isopropyl-5-(4-(methylamino)cyclohex-1-en-1-yl)imidazo[1,5-a]pyrazin-1-yl)naphthalen-1-yl)-3-(3-methoxyphenyl)urea] displayed an IC50 of 59 nM. In turn, `CNC1CC=C(c2cnc(N)c3c(-c4ccc(Cc5ncc(-c6ccccc6)[nH]5)c5ccccc45)nc(C(C)C)n23)CC1` (stereo not shown) [Example 168, 3-Isopropyl-5-(4-(methylamino)cyclohex-1-en-1-yl)-1-(4-((5-phenyl-1H-imidazol-2-yl)methyl)naphthalen-1-yl)imidazo[1,5-a]pyrazin-8-amine] yielded an IC50 of 96 nM. The figure for `CNC1CC=C(c2cnc(N)c3c(-c4ccc(CC(=O)Nc5cccc(OC)c5)c5ccccc45)nc(C(C)C)n23)CC1` (stereo not shown) [Example 71, 2-(4-(8-amino-3-isopropyl-5-(4-(methylamino)cyclohex-1-en-1-yl)imidazo[1,5-a]pyrazin-1-yl)naphthalen-1-yl)-N-(3-methoxyphenyl)acetamide] is 62 nM; for `CC(C)c1nc(-c2ccc(NS(=O)(=O)Cc3ccccc3Cl)c(F)c2)c2c(N)ncc(CN3CCNCC3)n12` [Example 36, N-(4-(8-amino-3-isopropyl-5-(piperazin-1-ylmethyl)imidazo[1,5-a]pyrazin-1-yl)-2-fluorophenyl)-1-(2-chlorophenyl)methanesulfonamide] it is 1530 nM.
